The values below come from patent US20130303518A1, “Methods of Inhibiting the Catalytic Activity of a Protein Kinase and of Treating a Protein Kinase Related Disorder” (JIANGSU HANSOH PHARMACEUTICAL CO., LTD., priority 2007, published 2013).

The target in one experiment is T1, c-Kit (Homo sapiens, UniProt P10721).
T1 construct: purchased invitrogen PV3081
Kind of experiment: Inhibition of receptor tyrosine kinases activity assay. The experiment is classed as biochemical.

The target in the next experiment is T2, Ret (Homo sapiens, UniProt P07949).
T2 construct: purchased invitrogen PV3819
Described as above. The experiment is classed as biochemical.

Experiment [1] relates to HT-29 (human colon cancer cells). Kind of experiment: Inhibition of cancer cell proliferation assay (SRB). The experiment is classed as cell-based. The settings on record: mean ± SD, 72 hours. An excerpt:
The cellular assay described here is to test the proliferation inhibition activity of the compound of Example 53 on the cancer cells in vitro using Sulforhodamine B (SRB) method. The cancer cells include HUVEC (human umbilical vein endothelial cells), HT-29 (human colon cancer cells), Mo7e (human megakaryoblastic leukemia cell line), A431 (human epidermoid carcinoma cells), NCI—H526 (small-cell lung cancer cells), and SK—BR-3 (human breast cancer cells).
HT-29 cancer cell: Cell Bank, Chinese Academy of Sciences, TCHu103;
The following in vitro assay is to determine the activity of the tested compound for inhibiting the proliferation of the cancer cells mentioned above. The activity is represented by the IC50 value. The general procedures of the assay are given as follows: Cancer cells mentioned above were chosen and seeded to 96-well cell culture plate at a suitable concentration (e.g., 5000 cells/mL medium). These cells then were incubated in carbon dioxide (CO2) incubator until they reached 85% confluency. […] 72 hours later, the activity of the tested compound for inhibiting the cell proliferation was determined by using Sulforhodamine B (SRB) method. IC50 value on tested cells is calculated by the data of inhibition rates of serial concentrations of the tested compound.

The test system of experiment [2] is A431 (human epidermoid carcinoma cells). The description is as above. The experiment is classed as cell-based. The conditions noted are these: A-431, 72 h, read-out: IC50 A431. An excerpt: (§1) The cancer cells include HUVEC (human umbilical vein endothelial cells), HT-29 (human colon cancer cells), Mo7e (human megakaryoblastic leukemia cell line), A431 (human epidermoid carcinoma cells), NCI—H526 (small-cell lung cancer cells), and SK—BR-3 (human breast cancer cells).
(§2) The following in vitro assay is to determine the activity of the tested compound for inhibiting the proliferation of the cancer cells mentioned above. The activity is represented by the IC50 value. The general procedures of the assay are given as follows: Cancer cells mentioned above were chosen and seeded to 96-well cell culture plate at a suitable concentration (e.g., 5000 cells/mL medium). […] Then, the cell culture medium was replaced by fresh one with tested compound added in it at serial concentrations (general 6 to 7 concentrations). Then the cells were put back to the incubator and cultured continuously. 72 hours later, the activity of the tested compound for inhibiting the cell proliferation was determined by using Sulforhodamine B (SRB) method. IC50 value on tested cells is calculated by the data of inhibition rates of serial concentrations of the tested compound.

The subject of experiment [3] is NCI—H526 (small-cell lung cancer cells). The experiment is described as above. The settings on record: Homo sapiens, NCI-H526, 72 h, read-out: IC50 NCI-H526. The experiment is classed as cell-based.
Source text: as §1, §2

In experiment [4] the test system is SK—BR-3 (human breast cancer cells). Described as above. The experiment is classed as cell-based. The settings on record: SK-BR-3, 72 h, read-out: IC50 SK-BR-3.
Source text: as §1, §2

Experiment [5] relates to NCI—H460 (non-small cell lung cancer). Kind of experiment: Anticancer pharmacodynamic assay in vivo, xenograft. Details: species or system nude mice. The conditions noted are these: for T/C (%): relative tumor volume (%): NCI-H460 xenograft, d0-13, P < 0.01 vs Control. An excerpt:
The test method and steps are the same with those disclosed in “PHARMACODYNAMIC ASSAYS IN VIVO” of the present invention. The therapeutic effects of the compound of Example 53 against xenografts of colon cancer, non-small cell lung cancer, liver cancer, melanoma, renal cancer in nude mice are estimated.
NCI—H460 (non-small cell lung cancer): Cell Bank, Chinese Academy of Sciences, TCHu205;
Nude mice were hypodermic inoculated HT-29 human colon cancer cell. After tumors grew to 100-300 mm^3, mice were randomly divided into teams (d0). The volume of tumors and weigh of the mice were measured for 2-3 times per week. The calculation formula of the volume of tumor (V) is: V=½×a×b^2, a: length of tumor, b: width of tumor.

The mark [6] stands for this setting: mean ± SD, 20 μM ATP, 25° C., 45 minutes.

The structures appear in SMILES notation. Marks after values point to notes of the source that are not given here.

T1 sequence (P10721 26-976): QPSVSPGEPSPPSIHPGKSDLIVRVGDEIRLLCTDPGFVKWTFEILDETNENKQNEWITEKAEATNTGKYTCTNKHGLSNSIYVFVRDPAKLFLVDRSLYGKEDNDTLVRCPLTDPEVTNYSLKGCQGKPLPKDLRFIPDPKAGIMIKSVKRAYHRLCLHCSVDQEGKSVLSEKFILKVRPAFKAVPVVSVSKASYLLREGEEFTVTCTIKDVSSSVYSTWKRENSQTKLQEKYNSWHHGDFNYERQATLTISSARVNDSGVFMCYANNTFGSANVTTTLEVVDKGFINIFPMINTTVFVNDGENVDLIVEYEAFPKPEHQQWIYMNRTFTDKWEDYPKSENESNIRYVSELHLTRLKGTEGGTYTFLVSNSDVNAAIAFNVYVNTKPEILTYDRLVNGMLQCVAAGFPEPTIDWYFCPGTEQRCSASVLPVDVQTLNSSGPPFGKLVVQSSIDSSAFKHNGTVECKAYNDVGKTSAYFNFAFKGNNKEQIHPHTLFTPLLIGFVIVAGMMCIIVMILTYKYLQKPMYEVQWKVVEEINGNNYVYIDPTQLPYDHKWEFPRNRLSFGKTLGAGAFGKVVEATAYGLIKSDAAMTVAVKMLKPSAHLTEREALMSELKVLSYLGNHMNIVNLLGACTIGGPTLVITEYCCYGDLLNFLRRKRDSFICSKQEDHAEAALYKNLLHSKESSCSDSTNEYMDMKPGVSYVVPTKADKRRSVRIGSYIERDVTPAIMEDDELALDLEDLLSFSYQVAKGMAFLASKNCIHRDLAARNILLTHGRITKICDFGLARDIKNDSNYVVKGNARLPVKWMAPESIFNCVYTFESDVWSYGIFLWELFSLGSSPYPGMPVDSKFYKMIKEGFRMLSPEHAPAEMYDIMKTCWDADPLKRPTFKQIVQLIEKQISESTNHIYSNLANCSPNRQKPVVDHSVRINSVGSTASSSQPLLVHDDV
T2 sequence (P07949 29-1114): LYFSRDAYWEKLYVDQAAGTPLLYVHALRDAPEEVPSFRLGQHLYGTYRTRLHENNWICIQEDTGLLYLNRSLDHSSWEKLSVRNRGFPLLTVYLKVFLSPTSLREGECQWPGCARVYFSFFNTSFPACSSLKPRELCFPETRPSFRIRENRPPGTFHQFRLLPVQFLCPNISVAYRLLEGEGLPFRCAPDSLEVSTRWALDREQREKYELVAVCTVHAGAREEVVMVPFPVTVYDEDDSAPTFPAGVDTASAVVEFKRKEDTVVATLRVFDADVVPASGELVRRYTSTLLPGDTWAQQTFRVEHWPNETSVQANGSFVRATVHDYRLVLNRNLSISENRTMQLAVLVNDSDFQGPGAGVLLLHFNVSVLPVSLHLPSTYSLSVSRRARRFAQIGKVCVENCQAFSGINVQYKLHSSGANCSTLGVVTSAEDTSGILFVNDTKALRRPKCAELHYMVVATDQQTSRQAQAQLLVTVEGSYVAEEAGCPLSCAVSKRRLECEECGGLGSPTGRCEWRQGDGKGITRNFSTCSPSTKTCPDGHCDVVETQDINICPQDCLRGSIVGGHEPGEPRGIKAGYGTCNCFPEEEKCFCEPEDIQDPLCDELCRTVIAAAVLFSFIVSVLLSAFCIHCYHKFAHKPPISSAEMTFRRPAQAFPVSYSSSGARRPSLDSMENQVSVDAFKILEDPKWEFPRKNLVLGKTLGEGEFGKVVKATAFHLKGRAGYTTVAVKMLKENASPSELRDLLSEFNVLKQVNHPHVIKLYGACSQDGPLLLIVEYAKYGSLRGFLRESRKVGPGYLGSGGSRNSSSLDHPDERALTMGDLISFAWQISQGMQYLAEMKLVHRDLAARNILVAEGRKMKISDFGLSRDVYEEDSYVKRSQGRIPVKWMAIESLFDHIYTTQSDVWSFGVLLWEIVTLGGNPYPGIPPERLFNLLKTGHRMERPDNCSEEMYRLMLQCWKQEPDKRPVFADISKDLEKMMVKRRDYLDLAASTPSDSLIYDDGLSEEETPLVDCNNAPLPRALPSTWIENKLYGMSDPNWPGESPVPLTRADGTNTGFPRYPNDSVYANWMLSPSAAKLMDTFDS

In the case of `Cc1c(/C=C2\C(=O)Nc3ccc(F)cc32)[nH]c2c1C(=O)N(C[C@H](O)CN1CCOCC1)CCC2` [Example 53, (R,Z)-2-(5-Fluoro-2-oxo-1,2-dihydro-indol-3-ylidenemethyl)-5-(2-hydroxy-3-morpholin-4-yl-propyl)-3-methyl-5,6,7,8-tetrahydro-1H-pyrrolo[3,2-c]azepin-4-one], the “inhibition of kinase activity (in words)” value on c-Kit (c-Kit) and against Ret (Ret) was “obvious activity” each time. The IC50 against c-Kit (setting [6]) is 3.3 ± 3.6 nM; against Ret (setting [6]) it was 182 ± 6.4 nM; in experiment [1] it was 2400 ± 1600 nM; in experiment [2], 2000 ± 500 nM; in experiment [3], 8300 ± 300 nM; in experiment [4], 7800 ± 1500 nM. The “T/C (%): relative tumor volume (%)” value in experiment [5] (15 mg/kg p.o) was 41.1* %; in experiment [5] (30 mg/kg p.o) it was 46.3* %; in experiment [5] (60 mg/kg p.o) it was 58.4* %. The “anticancer activity against xenograft (in words)” value in experiment [5] (NCI—H460 xenograft in nude mice) is recorded as “obvious anticancer activity”.

The IC50 is the concentration at which inhibition is half-maximal.
